Assays:
C57BL/6J mice = experiment: Glucokinase activator in vivo screen (blood glucose after oral dosing); conditions: oral gavage 50 mg/kg, blood glucose at 0, 1, 2, 4, 6 h, active = significant (p ≦0.05) decrease for two consecutive time points
Procedure: Glucokinase Activator in vivo Screen Protocol: C57BL/6J mice are orally dosed via gavage with Glucokinase (GK) activator at 50 mg/kg body weight following a two hour fasting period. Blood glucose determinations are made five times during the six hour post-dose study period.
Mice (n=6) are weighed and fasted for a two hour period prior to oral treatment. GK activators are formulated at 6.76 mg/ml in Gelucire vehicle (Ethanol:Gelucire44/14:PEG400q.s. 4:66:30 v/w/v. Mice are dosed orally with 7.5 μl formulation per gram of body weight to equal to a 50 mg/kg dose. Immediately prior to dosing, a pre dose (time zero) blood glucose reading is acquired by snipping off a small portion of the animals tail (˜1 mm) and collecting 15 μl blood into a heparinized capillary tube for analysis. Following GK activator administration, additional blood glucose reading are takenat 1, 2, 4 and 6 hours post dose from the same tail wound. Results are interpreted by comparing the mean blood glucose values of six vehicle treated mice with six GK activator treated mice over the six hour study duration. Compounds are considered active when they exibit a statistically significant (p ≦0.05) decrease in blood glucose compared to vehicle for two consecutive assay time points.

Human liver GK1 (GST-GK) = biological target: T1, Human liver GK1 (GST-GK) (Homo sapiens, UniProt P35557); experiment: In vitro glucokinase activity assay (G6PDH-coupled, NADH, OD 340 nm); type: biochemical; conditions: 25° C., 5 mM D-glucose, 1 mM ATP, 10% DMSO, recombinant GST-GK
T1 construct: made in house; host or cells: E. coli
T1 sequence (P35557 1-466 isoform P35557-2): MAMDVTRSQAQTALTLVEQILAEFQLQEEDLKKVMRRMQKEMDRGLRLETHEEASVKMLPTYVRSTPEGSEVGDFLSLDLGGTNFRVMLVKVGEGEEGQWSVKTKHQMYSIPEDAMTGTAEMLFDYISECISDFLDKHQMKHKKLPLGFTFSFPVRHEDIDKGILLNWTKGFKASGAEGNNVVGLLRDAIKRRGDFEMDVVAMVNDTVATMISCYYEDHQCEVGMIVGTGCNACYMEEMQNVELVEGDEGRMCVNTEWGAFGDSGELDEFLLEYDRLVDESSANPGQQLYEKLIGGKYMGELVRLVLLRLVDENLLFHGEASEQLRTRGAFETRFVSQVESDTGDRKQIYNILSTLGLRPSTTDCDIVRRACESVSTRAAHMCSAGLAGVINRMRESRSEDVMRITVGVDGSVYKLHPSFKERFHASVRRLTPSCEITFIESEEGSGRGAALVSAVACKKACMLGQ
Procedure: Glucokinase Assay: Glucokinase (GK) was assayed by coupling the production of glucose-6-phosphate to the generation of NADH with glucose-6-phosphate dehydrogenase (G6PDH, 0.75-1 kunits/mg; Boehringer Mannheim, Indianapolis, Ind.) from Leuconostoc mesenteroides as the coupling enzyme (Scheme 2). Recombinant
Human liver GK1 was expressed in E. coli as a glutathione S-transferase fusion protein (GST-GK) [Liang et al, 1995] and was purified by chromatography over a glutathione-Sepharose 4B affinity column using the procedure provided by the manufacturer (Amersham Pharmacia Biotech, Piscataway, N.J.).
The assay was conducted at 25° C. in a flat bottom 96-well tissue culture plate from Costar (Cambridge, Mass.) with a final incubation volume of 120 μl. The incubation mixture contained: 25 mM Hepes buffer (pH, 7.1), 25 mM KCl, 5 mM D-glucose, 1 mM ATP, 1.8 mM NAD, 2 mM MgCl2, 1 μM sorbitol-6-phosphate, 1 mM dithiothreitol, test drug or 10% DMSO, 1.8 unit/ml G6PDH, and GK (see below). […]
After addition of enzyme, the increase in optical density (OD) at 340 nm was monitored over a 10 minute incubation period as a measure of GK activity. […] The GK activity in control wells was compared with the activity in wells containing test GK activators, and the concentration of activator that produced a 50% increase in the activity of GK, i.e., the SC1.5, was calculated.

Row | Structure (SMILES) | glucokinase activator in vivo activity (decrease in blood glucose compared to vehicle) (C57BL/6J mice) | SC1.5 (concentration of activator that produced a 50% increase in the activity of GK) (Human liver GK1 (GST-GK))
1 | O=C(Nc1nccs1)[C@H](CC1CCCCC1)N1Cc2ccccc2C1=O [Example 1, (S)-3-cyclohexyl-2-(1-oxo-1,3-dihydro-isoindol-2-yl)-N-thiazol-2-yl-propionamide] | excellent glucokinase activator in vivo activity | 
2 | O=C(Nc1nccs1)[C@@H](CC1CCCCC1)N1Cc2ccccc2C1=O [Example 9, (R)-3-cyclohexyl-2-(1-oxo-1,3-dihydro-isoindol-2-yl)-N-thiazol-2-yl-propionamide] |  | 36 µM
3 | O=C(Nc1ccncn1)[C@H](CC1CCCCC1)N1Cc2ccccc2C1=O [Example 14, 3-Cyclohexyl-2-(1-oxo-1,3-dihydro-isoindol-2-yl)-N-pyrimidin-4-yl-propionamide] | excellent glucokinase activator in vivo activity | 
4 | O=C(Nc1cnccn1)[C@H](CC1CCCCC1)N1Cc2ccccc2C1=O [Example 15, (S)-3-Cyclohexyl-2-(1-oxo-1,3-dihydro-isoindol-2-yl)-N-pyrazin-2-yl-propionamide] | excellent glucokinase activator in vivo activity | 
5 | O=C(Nc1ncc(Cl)s1)C(CC1CCCC1)N1Cc2ccccc2C1=O (centres unmarked) [Example 18, N-(5-Chloro-thiazol-2-yl)-3-cyclopentyl-2-(1-oxo-1,3-dihydro-isoindol-2-yl)-propionamide] | excellent glucokinase activator in vivo activity | 
6 | O=C(Nc1ccc(Br)cn1)[C@H](CC1CCCCC1)N1Cc2ccccc2C1=O [Example 22, (S)-N-(5-Bromo-pyridin-2-yl)-3-cyclohexyl-2-(1-oxo-1,3-dihydro-isoindol-2-yl)-propionamide] | excellent glucokinase activator in vivo activity | 
7 | O=C(Nc1nccs1)[C@H](CC1CCCCC1)N1Cc2c(F)cccc2C1=O [Example 23.1, (S)-3-Cyclohexyl-2-(4-fluoro-1-oxo-1,3-dihydro-isoindol-2-yl)-N-thiazol-2-yl-propionamide] | excellent glucokinase activator in vivo activity | 
8 | O=C(Nc1cnccn1)[C@H](CC1CCCCC1)N1Cc2c(F)cccc2C1=O [Example 25.1] | excellent glucokinase activator in vivo activity | 
9 | O=C(Nc1ccccn1)[C@H](CC1CCCCC1)N1Cc2ccccc2C1=O [Example 26, (S)-3-Cyclohexyl-2-(1-oxo-1,3-dihydro-isoindol-2-yl)-N-pyridin-2-yl-propionamide] | excellent glucokinase activator in vivo activity | 
10 | Cc1ccc(NC(=O)[C@H](CC2CCCCC2)N2Cc3ccccc3C2=O)nc1 [Example 31, (S)-3-Cyclohexyl-2-(1-oxo-1,3-dihydro-isoindol-2-yl)-N-5-methyl-pyridin-2-yl-propionamide] | excellent glucokinase activator in vivo activity | 
11 | O=C(Nc1ccc(Cl)cn1)[C@H](CC1CCCCC1)N1Cc2ccccc2C1=O [Example 33, (S)-3-Cyclohexyl-2-(1-oxo-1,3-dihydro-isoindol-2-yl)-N-5-chloro-pyridin-2-yl-propionamide] | excellent glucokinase activator in vivo activity | 
